From patent EP0118571A1, “Inhibitor of aldose reductase” (Kaken Pharmaceutical Co., Ltd., priority 1983, dated 1984) come the findings set out here.

Experiment [1] deals with T1, bovine lens AR (BLAR) (Bos taurus, UniProt P16116).
T1 construct: BLAR and RLAR were purified according to the method of Inagaki et al; from tissue; host or cells: bovine lens
As to the kind of experiment: Aldose reductase (AR) activity assay, bovine lens AR (NADPH oxidation, DL-glyceraldehyde substrate). Format: biochemical. The conditions noted are these: for inhibition at 10 µM: inhibitor 10^-5M, read-out: Inhibition against enzyme activity (%) BLAR 10^-5M; for inhibition at 10 µM / inhibition at 1 µM / inhibition at 0.1 µM: 30°C, pH 6.2, 1 % propylene glycol; for inhibition at 1 µM: inhibitor 10^-6M, read-out: Inhibition against enzyme activity (%) BLAR 10^-6M; for inhibition at 0.1 µM: inhibitor 10^-7M, read-out: Inhibition against enzyme activity (%) BLAR 10^-7M. On the procedure:
(§1) The inhibitory activitiy against AR of LARI was determined according to the following method. As reference examples, there were employed quercitrin and two flavone derivatives having a relatively similar structure to that of LARI, i.e. 6,4'-dihydroxy-5,7,8,3'-tetramethoxyflavone and 5,4'-dihydroxy-6,7,8,3'-tetramethoxyflavone (hereinafter referred to as "Ref-1" and "Ref-2", respectively).
(§2) Rat lenses were removed from eyes of rats of the Wistar strain weighing 200 to 250 g. Bovine eyes were obtained from a local abattoir, and the lenses were removed and frozen until needed.
(§3) All compounds to be subjected to examination were dissolved in propylene glycol being a useful solvent of low toxicity for some water-insoluble drugs. A 10^-3M solution was prepared and diluted to the desired concentration with propylene glycol. To the reaction mixture were added aliquots of the diluted solution to yield concentrations of 10^-8M to 10^-5M and a propylene glycol concentration of 1 %.
(§4) AR assays were conducted according to the procedure of Hayman and Kinoshita (J. Biol. Chem. 240, p. 877 (1965)), except for the addition of ammonium sulfate instead of lithium sulfate to the reaction mixture. Assays were performed at 30°C. in 0.1 M sodium phosphate buffer (pH 6.2) containing 0.4 M ammonium sulfate, 10 mM DL-glyceraldehyde and 0.16 mM NADPH and the enzyme (0.010 to 0.016 unit) in a total volume of 1.0 ml. The effects of inhibitors on the enzyme activity were determined in the reaction mixture containing 10 µl. of each inhibitor solution at the desired concentration. The blank reference to correct for non-specific reduction of NADPH contained all of the above compounds except the above DL-glyceraldehyde. The reaction was initiated by the addition of the above DL-glyceraldehyde, and the rate of NADPH oxidation was followed by recording the decrease in absorbance at 340 nm. on a Gilford model 250 spectrophotometer.
(§5) BLAR and RLAR were purified according to the method of Inagaki et al (Archs. Biochem. Biophys. 216, p. 337 (1982)). Briefly, a 40 to 75 % ammonium sulfate fraction was subjected to chromatography on DEAE-Sephacel, followed by two column chromatographic steps, i.e. affinity chromatography using Matrex gel red A and gel filtration on Sephadex G-75.
(§6) The concentration of inhibitor needed to elicit a 50 % inhibition (IC50) was determined according to the method of Kador et al (Docum. Ophthal. Proc. Series 18, p. 117 (1979)).

The target in experiment [2] is T2, rat lens AR (RLAR) (Rattus norvegicus, UniProt P07943).
T2 construct: BLAR and RLAR were purified according to the method of Inagaki et al; from tissue; host or cells: rat (Wistar) lens
As to the kind of experiment: Aldose reductase (AR) activity assay, rat lens AR (NADPH oxidation, DL-glyceraldehyde substrate). Format: biochemical. The conditions noted are these: for inhibition at 10 µM: inhibitor 10^-5M, read-out: Inhibition against enzyme activity (%) RLAR 10^-5M; for inhibition at 10 µM / inhibition at 1 µM / inhibition at 0.1 µM: 30°C, pH 6.2, 1 % propylene glycol; for inhibition at 1 µM: inhibitor 10^-6M, read-out: Inhibition against enzyme activity (%) RLAR 10^-6M; for inhibition at 0.1 µM: inhibitor 10^-7M, read-out: Inhibition against enzyme activity (%) RLAR 10^-7M. The procedure: as §1, §2, §3, §4, §5, §6

The mark [3] stands for this setting: read-out: IC50 (concentration of inhibitor needed to elicit 50 % inhibition) BLAR.
Where [4] appears, read: purified RLAR, Table 2, read-out: IC50 (M) X 10^6 RLAR.
The mark [5] stands for this setting: read-out: IC50 (concentration of inhibitor needed to elicit 50 % inhibition) RLAR.

Each structure is given as a SMILES string. Like-named read-outs stand apart in the source and are kept apart here.

Take `C[C@@H]1O[C@@H](Oc2c(-c3ccc(O)c(O)c3)oc3cc(O)cc(O)c3c2=O)[C@H](O)[C@H](O)[C@H]1O` [quercitrin]: the inhibition at 10 µM came to 66% in experiment [1] and 84% in experiment [2]. Also, the values for the inhibition at 1 µM in experiment [1] and in experiment [2] were 32% and 56%, respectively. The values for the inhibition at 0.1 µM in experiment [1] and in experiment [2] were 0% and 38%, respectively. The IC50 in experiment [1] (purified BLAR, Table 2, read-out: IC50 (M) X 10^6 BLAR) stood at 3.3e-06 M; in experiment [1] (setting [3]), 3.3e-06 M; in experiment [2] (setting [4]), 4.9e-07 M; in experiment [2] (setting [5]), 4.9e-07 M.
Turning to `COc1cc(-c2cc(=O)c3c(OC)c(O)c(OC)c(OC)c3o2)ccc1O` [Ref-1, 6,4'-dihydroxy-5,7,8,3'-tetramethoxyflavone], in experiment [1], the inhibition at 10 µM turned out to be 63%, the inhibition at 1 µM is 19% and the inhibition at 0.1 µM stood at 0%. Moreover, in experiment [2], the inhibition at 10 µM was determined as 58%, the inhibition at 1 µM was found to be 22% and the inhibition at 0.1 µM is 6%.
Consider `COc1c(OC)c(OC)c2c(=O)cc(-c3ccc(O)c(O)c3)oc2c1OC` [LARI, 3',4'-dihydroxy-5,6,7,8-tetramethoxyflavone], for which the values for the inhibition at 10 µM in experiment [1] and in experiment [2] were 100% and 97%, respectively. Moreover, the inhibition at 1 µM in experiment [1] worked out at 90%; in experiment [2] it was 93%. The values for the inhibition at 0.1 µM in experiment [1] and in experiment [2] were 37% and 78%, respectively. The IC50 worked out at 1.8e-07 M in experiment [1] (setting [3]), 3e-08 M in experiment [2] (setting [4]) and 3.6e-08 M in experiment [2] (setting [5]). Also, in experiment [2] (relative to quercitrin, AR in general (RLAR and BLAR not distinguished)), the “inhibitory activity against AR, times as potent as that of quercitrin” value is given as “about 17 times”.
`COc1cc(-c2cc(=O)c3c(O)c(OC)c(OC)c(OC)c3o2)ccc1O` [Ref-2, 5,4'-dihydroxy-6,7,8,3'-tetramethoxyflavone]: in experiment [1], the inhibition at 10 µM came out at 56%, the inhibition at 1 µM worked out at 19% and the inhibition at 0.1 µM turned out to be 0%. Besides, in experiment [2], the inhibition at 10 µM came to 40%, the inhibition at 1 µM was 15% and the inhibition at 0.1 µM came out at 0%.
